Key:
[1] = physchem; settings: pH 9.5, aqueous buffer
[2] = people driving; similar to 0.08 breath alcohol; cited from earlier work
[3] = sustained abstinence in chronic frequent smokers; cited from earlier work

Row | SMILES | solubility [1] | blood concentration showing increased weaving within the lane [2] | time residual THC can be detected in blood [3]
1 | COc1cc(NS(C)(=O)=O)ccc1N [OX0245] | ≥ 1000 µg/mL | – | –
2 | CCCCCc1cc(O)c2c(c1)OC(C)(C)[C@@H]1CCC(C)=C[C@@H]21 [THC, Δ-9-tetrahydrocannabinol] | – | 13.1 µg/L | up to a month

Reference: patent US20190086432A1, “SYSTEMS AND METHODS RELATED TO HUMAN NON-INVASIVE DRUG TESTING” (priority 2017, published 2019)
